Assay results reported in ChEMBL document CHEMBL1149997, “Anti-HIV activity of quassinoids” (Bioorg Med Chem Lett, 1996).
pEC50, pIC50: −log10 of the molar value.

Tests used:
[1] = Therapeutic index expressed as the ratio of IC50 to EC50.; conditions: read-out: Therapeutic index
[2] = tested on: Human immunodeficiency virus 1; test: Inhibition of HIV-1 replication in H9 lymphocytic cells.; assay type: functional, organism-based; conditions: Human immunodeficiency virus 1, H9
[3] = tested on: H9; test: Cytotoxicity against H9 lymphocytic cells.; assay type: functional, cell-based; conditions: Homo sapiens
[4] = tested on: H9; test: Compound was tested for inhibitory activity against HIV replication in H9 lymphocytic cells; Toxic at all concentrations; assay type: functional, cell-based, Homo sapiens
[5] = tested on: H9; test: Compound was tested for cytotoxicity against H9 lymphocytic cells; Toxic at all concentrations; assay type: functional, cell-based, Homo sapiens
[6] = tested on: H9; test: Compound was tested for inhibitory activity against HIV replication in H9 lymphocytic cells; No effect; assay type: functional, cell-based, Homo sapiens
[7] = Therapeutic index expressed as the ratio of IC50 to EC50; No effect

Row | SMILES | pEC50 [2] | EC50 [6] | selectivity ratio [1] | pIC50 [3] | EC50 [4] | IC50 [5] | Therapeutic index [7]
1 | CC(=O)O[C@@H]1C(=O)[C@H](C)[C@@H]2CC(=O)O[C@@H]3C[C@H]4[C@H](C)CC(O)C(=O)[C@]4(C)[C@@H]1[C@@]32C (some centres not stated) | 3.61 |  | > 1 | < 3.61 |  |  | 
2 | CC1=CC(=O)[C@@H](O)[C@@]2(C)C1C[C@H]1OC(=O)C[C@H]3[C@H](C)[C@H](O)C(=O)[C@@H]2[C@@]13CO (some centres not stated) | 4.97 |  | > 25 | < 3.58 |  |  | 
3 | C=C1[C@@H](O)[C@]2(O)OC[C@@]34[C@H]1[C@@H](OC(=O)C(C)(O)CC)C(=O)O[C@@H]3C[C@H]1C(C)=CC(=O)[C@@H](O)[C@]1(C)[C@@H]24 (some centres not stated) |  |  |  |  | Toxic at all concentrations | Toxic at all concentrations | 
4 | COC(=O)C(C)[C@@H]1CC(=O)O[C@@H]2C[C@H]3C(C)=CC(=O)[C@@H](O)[C@]3(C)[C@H]3C(=O)OC[C@]321 (some centres not stated) [AILANTINOL A] | 4.52 |  | > 8.2 | < 3.61 |  |  | 
5 | C[C@@H]1C[C@H](O)C(=O)[C@]2(C)[C@H]3[C@H](O)C(=O)[C@H](C)[C@@H]4CC(=O)O[C@H](C[C@@H]12)[C@]34C [AMAROLIDE] | 3.75 |  | > 1.5 | < 3.56 |  |  | 
6 | COC(=O)[C@@]12OC[C@]34[C@H]([C@@H](O)[C@@H]1O)[C@@]1(C)C=C(O[C@@H]5O[C@H](CO)[C@@H](O)[C@H](O)[C@H]5O)C(=O)[C@@H](C)[C@@H]1C[C@H]3OC(=O)[C@H](OC(=O)C=C(C)C)[C@@H]24 [BRUCEOSIDE A] | 4.54 |  | 1 | 4.54 |  |  | 
7 | COC(=O)[C@@]12OC[C@]34[C@H](OC(=O)C[C@@H]13)[C@H](OC(=O)C=C(C)C)[C@H]1C(C)=C(O[C@@H]3O[C@H](CO)[C@@H](O)[C@H](O)[C@H]3O)C(=O)C[C@]1(C)[C@H]4[C@@H](O)[C@@H]2O [BRUCEOSIDE C] |  | Not Active |  | 4.36 |  |  | Not Active
8 | CC(C)=CC(=O)O[C@H]1C(=O)O[C@@H]2C[C@H]3[C@H](C)C(=O)C(O[C@@H]4O[C@H](CO)[C@@H](O)[C@H](O)[C@H]4O)=C[C@]3(C)[C@H]3[C@@H](O)[C@H](O)[C@]4(C(=O)O)OC[C@]32[C@@H]14 [BRUCEOSIDE D] |  | Not Active |  | 4.28 |  |  | Not Active
9 | CC(C)CC(=O)O[C@H]1C(=O)O[C@@H]2C[C@H]3[C@H](C)C(=O)C(O[C@@H]4O[C@H](CO)[C@@H](O)[C@H](O)[C@H]4O)=C[C@]3(C)[C@H]3[C@@H](O)[C@H](O)[C@]4(C(=O)O)OC[C@]32[C@@H]14 [BRUCEOSIDE E] | 4.13 |  | 0.8 | 4.23 |  |  | 
10 | COC(=O)[C@]12OC[C@]34[C@H]([C@@H](O)[C@@H]1O)[C@@]1(C)C(=O)C(O[C@@H]5O[C@H](CO)[C@@H](O)[C@H](O)[C@H]5O)=C[C@@H](C)[C@@H]1C[C@H]3OC(=O)[C@H](OC(=O)/C=C(\C)C(C)(C)OC(C)=O)[C@@H]24 [Bruceantinoside C] | 4.34 |  | 0.6 | 4.59 |  |  | 
11 | COC(=O)[C@]12OC[C@]34[C@H]([C@@H](O)[C@@H]1O)[C@@]1(C)C=C(O[C@@H]5O[C@H](CO)[C@@H](O)[C@H](O)[C@H]5O)C(=O)[C@@H](C)[C@@H]1C[C@H]3OC(=O)[C@H](OC(=O)/C=C(\C)C(C)C)[C@@H]24 [Bruceantinoside-A] |  | Not Active |  | 5.40 |  |  | Not Active
12 | COC(=O)[C@]12OC[C@]34[C@H]([C@@H](O)[C@@H]1O)[C@@]1(C)CC(=O)C(O[C@@H]5O[C@H](CO)[C@@H](O)[C@H](O)[C@H]5O)=C(C)[C@@H]1C[C@H]3OC(=O)[C@H](OC(=O)C=C(C)C)[C@@H]24 [Bruceoside-B] | 5.52 |  | 1 | 5.52 |  |  | 
13 | CC(=O)OC(C)(C)/C(C)=C/C(=O)O[C@H]1C(=O)O[C@@H]2C[C@H]3[C@H](C)C(=O)C(O[C@@H]4O[C@H](CO)[C@@H](O)[C@H](O)[C@H]4O)=C[C@]3(C)[C@H]3[C@@H](O)[C@H](O)[C@@]4(C(=O)O)OC[C@]32[C@@H]14 [Bruceoside-F] | 3.95 |  | > 1.2 | < 3.88 |  |  | 

The next lines start with results.

Row | pEC50 [2] | EC50 [6] | SMILES | selectivity ratio [1] | pIC50 [3] | EC50 [4] | IC50 [5] | Therapeutic index [7]
14 | 4.37 |  | CC1=CC(=O)[C@@H](O)[C@]2(C)[C@H]3[C@@]4(O)C(=O)OC[C@@]35[C@@H](C[C@@H]12)OC(=O)C[C@H]5[C@H]4C [SHINJUDILACTONE] | > 6.2 | < 3.58 |  |  | 
15 | 5.30 |  | C=C1[C@H](O)[C@]2(O)OC[C@]34[C@H]2[C@@]2(C)[C@H](O)[C@@H](O)C=C(C)[C@@H]2C[C@H]3OC(=O)C[C@@H]14 [SHINJULACTONE A] | 1 | 5.30 |  |  | 
16 |  | Not Active | COC(=O)[C@]12OC[C@]34[C@H]([C@@H](O)[C@@H]1O)[C@@]1(C)C=C(O[C@@H]5O[C@H](CO)[C@@H](O)[C@H](O)[C@H]5O)C(=O)[C@@H](C)[C@@H]1C[C@H]3OC(=O)[C@H](OC(=O)/C=C(\C)C(C)(C)O)[C@@H]24 [YADANZIOSIDE C] |  | 4.26 |  |  | Not Active
17 | 3.96 |  | COC(=O)[C@]12OC[C@]34[C@H]([C@@H](O)[C@@H]1O)[C@@]1(C)C=C(O[C@@H]5O[C@H](CO)[C@@H](O)[C@H](O)[C@H]5O)C(=O)[C@@H](C)[C@@H]1C[C@H]3OC(=O)[C@H](OC(C)=O)[C@@H]24 [YADANZIOSIDE F] | 1.4 | 3.81 |  |  | 
18 |  | Not Active | COC(=O)[C@@]12OC[C@]34[C@H]([C@@H](O)[C@@H]1O)[C@@]1(C)C=C(O[C@@H]5O[C@H](CO)[C@@H](O)[C@H](O)[C@H]5O)C(=O)[C@@H](C)[C@@H]1C[C@H]3OC(=O)[C@H](OC(=O)c1ccccc1)[C@@H]24 [YADANZIOSIDE-M] |  | 5.15 |  |  | Not Active
19 | 3.96 |  | COC(=O)[C@]12OC[C@]34[C@H]([C@@H](O)[C@@H]1O)[C@@]1(C)C=C(O[C@@H]5O[C@H](CO)[C@@H](O)[C@H](O)[C@H]5O)C(=O)[C@@H](C)[C@@H]1C[C@H]3OC(=O)[C@H](OC(=O)CC(C)C)[C@@H]24 [Yadanzioside A] | 1.3 | 3.84 |  |  | 
20 | 5.30 |  | COC(=O)[C@]12OC[C@]34[C@H]([C@@H](O)[C@@H]1O)[C@@]1(C)CC(=O)C(O[C@@H]5O[C@H](CO)[C@@H](O)[C@H](O)[C@H]5O)=C(C)[C@@H]1C[C@H]3OC(=O)[C@H](OC(=O)CC(C)C)[C@@H]24 [Yadanzioside B] | 0.8 | 5.40 |  |  | 
21 |  | Not Active | COC(=O)[C@]12OC[C@]34[C@H]([C@@H](O)[C@@H]1O)[C@@]1(C)[C@H](O)[C@H](O[C@@H]5O[C@H](CO)[C@@H](O)[C@H](O)[C@H]5O)C=C(C)[C@@H]1C[C@H]3OC(=O)[C@H](OC(=O)C=C(C)C)[C@@H]24 [Yadanzioside E] |  | 4.54 |  |  | Not Active
22 | 4.64 |  | COC(=O)[C@]12OC[C@]34[C@H]([C@@H](O)[C@@H]1O)[C@@]1(C)C=C(O[C@@H]5O[C@H](CO)[C@@H](O)[C@H](O)[C@H]5O)C(=O)[C@@H](C)[C@@H]1C[C@H]3OC(=O)[C@H](OC(=O)/C=C(\C)C(C)(C)OC(C)=O)[C@@H]24 [Yadanzioside G] | 1.6 | 4.43 |  |  | 
23 | 5.30 |  | COC(=O)[C@]12OC[C@]34[C@H]([C@@H](O)[C@@H]1O)[C@@]1(C)CC(=O)C(O[C@@H]5O[C@H](CO)[C@@H](O)[C@H](O)[C@H]5O)=C(C)[C@@H]1C[C@H]3OC(=O)[C@H](OC(=O)/C=C(\C)C(C)(C)O)[C@@H]24 [Yadanzioside L] | 2 | 5.00 |  |  | 
24 |  | Not Active | COC(=O)[C@]12OC[C@]34[C@H]([C@@H](O)[C@@H]1O)[C@@]1(C)C(=O)C(O[C@@H]5O[C@H](CO)[C@@H](O)[C@H](O)[C@H]5O)=C[C@@H](C)[C@@H]1C[C@H]3OC(=O)[C@H](OC(=O)/C=C(\C)C(C)C)[C@@H]24 [Yadanzioside N] |  | 4.31 |  |  | Not Active
25 | 4.74 |  | COC(=O)[C@]12OC[C@]34[C@H]([C@@H](O)[C@@H]1O)[C@@]1(C)CC(=O)C(O[C@@H]5O[C@H](CO)[C@@H](O)[C@H](O)[C@H]5O)=C(C)[C@@H]1C[C@H]3OC(=O)[C@H](OC(=O)/C=C(\C)C(C)C)[C@@H]24 [Yadanzioside P] | 1 | 4.74 |  |  | 
26 | 7.52 |  | Nc1ccn([C@H]2CC[C@@H](CO)O2)c(=O)n1 [ZALCITABINE] | 16700 | 3.30 |  |  | 
